Source: US20240327463A1, “ANTIBACTERIAL PRODUCTS” (priority 2017, published 2024)
≈ marks a conversion by molar mass, not a printed value. Values belong to the compound of their own block, whether it stands above or below them. Bridge positions count the residues as written; N and C are the ends. Square brackets hold non-standard residues; d marks the D form. Peptide text beside a SMILES is read from it. * marks the point of attachment. dNMeF = CN[C@H](Cc1ccccc1)C(=O)O; X3 = O=C(CCCN1CNC(=S)NC1)*; X4 = O=C(CN1CNC(=S)NC1)*; X1 = NCC(CN)OC(=O)*

Key:
MRSA ATCC 33591 = conditions: ATCC 33591
Procedure, shortened: (§1)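 Twofold dilutions of DMSO-solubilised peptides (from 512 μg/ml) in Mueller Hinton; 24 h incubation, 37° C; visible growth scored.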

Mycobacterium smegmatis = assay type: cell-based
Experimental: (§2) Bacteria were grown on Mueller Hinton broth (oxoid). All incubations were at 37° C. Dilutions were carried out using Mueller Hinton. […] This process was repeated up to well 11. […] This was repeated three times. […] Results are tabulated in the Examples.

M. smegmatis ATCC 607 = assay: microbe, parasite or virus in culture; conditions: ATCC 607
Procedure, shortened: as §1

MRSA ATCC 700699 = assay: microbe, parasite or virus in culture; conditions: ATCC 700699
Procedure, shortened: as §1

MRSA DM21455 (eye) = assay: microbe, parasite or virus in culture; conditions: DM21455 (eye)
Procedure, shortened: as §1

MRSA DR 42412 (sputum) = assay: microbe, parasite or virus in culture; conditions: DR 42412 (sputum)
Procedure, shortened: as §1

[1] = test system: Staphylococcus aureus ATCC 29213; assay: microbe, parasite or virus in culture; conditions: ATCC 29213
Procedure, shortened: as §1

VRE ATCC 29212 = assay: microbe, parasite or virus in culture; conditions: ATCC 29212
Procedure, shortened: as §1

VRE ATCC 700802 = assay: microbe, parasite or virus in culture; conditions: ATCC 700802
Procedure, shortened: as §1

S. aureus ATCC 25923 = assay type: cell-based, Staphylococcus aureus
Experimental: as §2

[2] = test system: human lung epithelial cell line A549; assay: Cytotoxicity in A549 cells (MTS assay, high content imaging); conditions: A549; 24 h
Experimental: (§3) It was important to evaluate the cytotoxicity of Compound 26 on mammalian cells prior to in vivo studies. The cytotoxicity of Compound 26 in human lung epithelial cell line A549 and primary dermal fibroblasts (hDFs) was determined. Both of these cell culture models are already established for evaluation of cytotoxicity of antimicrobial peptides.
(§4) The stock solution of Compound 26 (500 μg/ml) was prepared fresh by directly dissolving Compound 26 in cell culture medium and used. Cells were treated with dimethyl sulfoxide (DMSO, 0.1% v/v) or nocodazole (5 μg/ml dissolved in DMSO) as controls. At the end of the treatment period, metabolic activities of cells were quantified by MTS-based cell viability assay. […] After 24 h treatment with Compound 26, A549 cells (c) and hDFs (d) were fixed, fluorescently stained with rhodamine-phalloidin (red), alexa fluor 488 conjugated anti-α-tubulin (green) and Hoechst 33342 (blue) and imaged using IN Cell Analyzer 2200 automated microscope. Representative images of cells treated with Compound 26 (62.5 μg/ml for 24 h) or nocodazole (10 μg/ml, toxicity control) are shown in FIG. 2 c,d.

[3] = test system: human primary dermal fibroblasts (hDFs); assay: Cytotoxicity in primary dermal fibroblasts (MTS assay, high content imaging); conditions: hDFs; 24 h
Experimental: as §3, §4

Compound: CC[C@@H](C)[C@@H](NC(=O)[C@@H](CCC(N)=O)NC(=O)[C@H](CO)NC(=O)[C@@H](NC(=O)[C@@H](Cc1ccccc1)NC)[C@@H](C)CC)C(=O)N[C@H](C(=O)N[C@@H](CO)C(=O)N[C@H]1C(=O)N[C@@H](C)C(=O)N[C@@H](C)C(=O)N[C@@H]([C@@H](C)CC)C(=O)O[C@H]1C)[C@@H](C)CC [Compound 14]
MIC (MRSA*) (MRSA ATCC 33591): 1 to 2 µg/mL
MIC (μg/mL) Mycobacterium smegmatis (Mycobacterium smegmatis): 2 µg/mL (≈ 1.73 µM)
MIC (M. smegmatis ATCC 607): 1 to 2 µg/mL
MBC (MRSA ATCC 700699): 16 µg/mL (≈ 13.8 µM)
MIC (MRSA ATCC 700699): 4 µg/mL (≈ 3.45 µM)
MBC (MRSA DM21455 (eye)): 2 µg/mL (≈ 1.73 µM)
MIC (MRSA DM21455 (eye)): 1 µg/mL (≈ 0.863 µM)
MBC (MRSA DR 42412 (sputum)): 4 µg/mL (≈ 3.45 µM)
MIC (MRSA DR 42412 (sputum)): 1 µg/mL (≈ 0.863 µM)
MBC [1]: 2 µg/mL (≈ 1.73 µM)
MIC [1]: 1 µg/mL (≈ 0.863 µM)
MIC (VRE ATCC 29212): 4 µg/mL (≈ 3.45 µM)
MIC (VRE ATCC 700802): 4 µg/mL (≈ 3.45 µM)

Compound: CC[C@@H](C)[C@@H](NC(=O)[C@@H](CCC(N)=O)NC(=O)[C@H](CO)NC(=O)[C@@H](NC(=O)[C@@H](Cc1ccccc1)NC)[C@@H](C)CC)C(=O)N[C@H](C(=O)N[C@@H](CO)C(=O)N[C@H]1C(=O)N[C@@H](C)C(=O)N[C@@H](CCCCNC(=O)CCCN2CNC(=S)NC2)C(=O)N[C@@H]([C@@H](C)CC)C(=O)O[C@H]1C)[C@@H](C)CC [Compound 23, GABA-thiourea-Lys10-teixobactin] (H-[dNMeF]IS[dQ][dI]IS[dT]AK(X3)I; ester 8-C)
MIC against S. aureus ATCC 25923 (S. aureus ATCC 25923): 2 µg/mL (≈ 1.43 µM)

Compound: COC(=O)Nc1nc2ccc(C(=O)c3cccs3)cc2[nH]1 [nocodazole, reference compound]
cell morphology, high content images [2]: substantial loss of adhered cells
cell morphology, high content images [3]: substantial loss of adhered cells

Results, then the compound that gave them:

MIC (MRSA*) (MRSA ATCC 33591): 0.25 µg/mL (≈ 0.188 µM)
MIC (μg/mL) Mycobacterium smegmatis (Mycobacterium smegmatis): 0.5 µg/mL (≈ 0.375 µM)
Compound: CC[C@@H](C)[C@@H](NC(=O)[C@@H](CCC(N)=O)NC(=O)[C@H](CO)NC(=O)[C@@H](NC(=O)[C@@H](Cc1ccccc1)NC)[C@@H](C)CC)C(=O)N[C@H](C(=O)N[C@@H](CO)C(=O)N[C@H]1C(=O)N[C@@H](C)C(=O)N[C@@H](CCCCNC(=O)OC(CN)CN)C(=O)N[C@@H]([C@@H](C)CC)C(=O)O[C@H]1C)[C@@H](C)CC [Compound 21, Diamino10-Teixobactin] (H-[dNMeF]IS[dQ][dI]IS[dT]AK(X1)I; ester 8-C)

MIC against S. aureus ATCC 25923 (S. aureus ATCC 25923): 2 µg/mL (≈ 1.46 µM)
Compound: CC[C@@H](C)[C@@H](NC(=O)[C@@H](CCC(N)=O)NC(=O)[C@H](CO)NC(=O)[C@@H](NC(=O)[C@@H](Cc1ccccc1)NC)[C@@H](C)CC)C(=O)N[C@H](C(=O)N[C@@H](CO)C(=O)N[C@H]1C(=O)N[C@@H](C)C(=O)N[C@@H](CCCCNC(=O)CN2CNC(=S)NC2)C(=O)N[C@@H]([C@@H](C)CC)C(=O)O[C@H]1C)[C@@H](C)CC [Compound 22, Gly-thiourea-Lys10-teixobactin] (H-[dNMeF]IS[dQ][dI]IS[dT]AK(X4)I; ester 8-C)
